In brackets after ≈: the same amount, converted by molar mass.
Experiment: Solubility of nimodipine in various aqueous solvent systems
Assay type: physicochemical
Conditions: for solubility: aqueous solvent system (glycerin/ethanol/water/PEG400), aqueous with cosolvent or surfactant or cyclodextrin, thermodynamic from solid, Nimodipine solubility

COCCOC(=O)C1=C(C)NC(C)=C(C(=O)OC(C)C)C1c1cccc([N+](=O)[O-])c1 (stereo not drawn) [Nimodipine]
solubility (Glycerin 0%, Ethanol 0%, Water 1%, PEG400 99%): 43000 µg/mL (≈ 103 mM) | solubility (Glycerin 0%, Ethanol 0%, Water 5%, PEG400 95%): 38000 µg/mL (≈ 90.8 mM) | solubility (Glycerin 0%, Ethanol 0%, Water 10%, PEG400 90%): 26000 µg/mL (≈ 62.1 mM) | solubility (Glycerin 0%, Ethanol 0%, Water 15%, PEG400 85%): 14000 µg/mL (≈ 33.5 mM) | solubility (Glycerin 0%, Ethanol 0%, Water 40%, PEG400 60%): 1300 µg/mL (≈ 3.11 mM) | solubility (Glycerin 0%, Ethanol 0%, Water 50%, PEG400 50%): 400 µg/mL (≈ 0.956 mM) | solubility (Glycerin 0%, Ethanol 1.0%, Water 10%, PEG400 89%): 31000 µg/mL (≈ 74.1 mM) | solubility (Glycerin 0%, Ethanol 1.0%, Water 20%, PEG400 79%): 18000 µg/mL (≈ 43 mM) | solubility (Glycerin 0%, Ethanol 5.0%, Water 10%, PEG400 85%): 29000 µg/mL (≈ 69.3 mM) | solubility (Glycerin 0%, Ethanol 5.0%, Water 20%, PEG400 75%): 14000 µg/mL (≈ 33.5 mM) | solubility (Glycerin 20%, Ethanol 0%, Water 20%, PEG400 60%): 1500 µg/mL (≈ 3.58 mM) | solubility (Glycerin 30%, Ethanol 0%, Water 10%, PEG400 60%): 1600 µg/mL (≈ 3.82 mM) | solubility (Glycerin 35%, Ethanol 0.4%, Water 1%, PEG400 63%): 13400 µg/mL (≈ 32 mM) | solubility (Glycerin 35%, Ethanol 0.4%, Water 10%, PEG400 54%): 5700 µg/mL (≈ 13.6 mM) | solubility (Glycerin 36%, Ethanol 0.4%, Water 20%, PEG400 43% (Table VI)): 1500 µg/mL (≈ 3.58 mM) | solubility (Glycerin 36%, Ethanol 0.4%, Water 20%, PEG400 43% (Table VII)): 1500 µg/mL (≈ 3.58 mM) | solubility (Glycerin 39%, Ethanol 0%, Water 1%, PEG400 60%): 2100 µg/mL (≈ 5.02 mM) | solubility (Glycerin 46%, Ethanol 0.4%, Water 10%, PEG400 43%): 1500 µg/mL (≈ 3.58 mM) | solubility (Glycerin 51%, Ethanol 0.4%, Water 5%, PEG400 43%): 4300 µg/mL (≈ 10.3 mM) | solubility (Glycerin 55%, Ethanol 0.4%, Water 1%, PEG400 43%, room temperature): 5200 µg/mL (≈ 12.4 mM) | Effect of higher amounts of ethanol on nimodipine solubility (water, polyethylene glycol, ethanol solvent system, higher amounts of ethanol (Example 2)): reduced nimodipine solubility
